ChEMBL document CHEMBL1142734, “Biological properties of D- and L-1-deoxyazasugars” (J Med Chem, 2005)

Experiments:
[1] = target: T1, Beta-mannosidase (Homo sapiens) (UniProt O00462); test: Percent inhibition of human beta-mannosidase at 1000 uM
T1 sequence (whole entry): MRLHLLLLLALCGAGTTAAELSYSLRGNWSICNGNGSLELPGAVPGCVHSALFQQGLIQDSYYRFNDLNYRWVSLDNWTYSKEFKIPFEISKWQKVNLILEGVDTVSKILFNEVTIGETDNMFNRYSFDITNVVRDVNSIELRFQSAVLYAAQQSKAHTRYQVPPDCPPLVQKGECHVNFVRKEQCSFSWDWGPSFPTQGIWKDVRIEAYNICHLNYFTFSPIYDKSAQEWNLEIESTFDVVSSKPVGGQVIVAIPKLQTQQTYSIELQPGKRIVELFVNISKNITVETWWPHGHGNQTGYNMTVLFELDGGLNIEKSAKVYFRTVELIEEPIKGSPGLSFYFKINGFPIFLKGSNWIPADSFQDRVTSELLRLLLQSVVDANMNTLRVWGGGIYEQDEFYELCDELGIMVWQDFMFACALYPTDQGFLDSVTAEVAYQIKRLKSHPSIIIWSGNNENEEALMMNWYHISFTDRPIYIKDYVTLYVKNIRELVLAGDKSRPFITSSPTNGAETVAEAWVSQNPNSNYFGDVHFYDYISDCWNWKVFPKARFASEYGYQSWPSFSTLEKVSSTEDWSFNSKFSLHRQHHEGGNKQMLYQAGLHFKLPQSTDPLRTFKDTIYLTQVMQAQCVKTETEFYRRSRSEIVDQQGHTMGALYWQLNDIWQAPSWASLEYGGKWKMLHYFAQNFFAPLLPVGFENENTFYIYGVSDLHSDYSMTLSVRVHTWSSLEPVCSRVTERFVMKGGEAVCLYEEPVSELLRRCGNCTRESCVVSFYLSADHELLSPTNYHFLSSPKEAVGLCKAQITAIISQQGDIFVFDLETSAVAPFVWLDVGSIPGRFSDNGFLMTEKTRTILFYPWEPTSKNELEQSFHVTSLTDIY

[2] = target: T2, Alpha-galactosidase C (Aspergillus niger) (UniProt Q9UUZ4); test: Percent inhibition of alpha-galactosidase of Aspergillus niger at 1000 uM
T2 sequence (whole entry): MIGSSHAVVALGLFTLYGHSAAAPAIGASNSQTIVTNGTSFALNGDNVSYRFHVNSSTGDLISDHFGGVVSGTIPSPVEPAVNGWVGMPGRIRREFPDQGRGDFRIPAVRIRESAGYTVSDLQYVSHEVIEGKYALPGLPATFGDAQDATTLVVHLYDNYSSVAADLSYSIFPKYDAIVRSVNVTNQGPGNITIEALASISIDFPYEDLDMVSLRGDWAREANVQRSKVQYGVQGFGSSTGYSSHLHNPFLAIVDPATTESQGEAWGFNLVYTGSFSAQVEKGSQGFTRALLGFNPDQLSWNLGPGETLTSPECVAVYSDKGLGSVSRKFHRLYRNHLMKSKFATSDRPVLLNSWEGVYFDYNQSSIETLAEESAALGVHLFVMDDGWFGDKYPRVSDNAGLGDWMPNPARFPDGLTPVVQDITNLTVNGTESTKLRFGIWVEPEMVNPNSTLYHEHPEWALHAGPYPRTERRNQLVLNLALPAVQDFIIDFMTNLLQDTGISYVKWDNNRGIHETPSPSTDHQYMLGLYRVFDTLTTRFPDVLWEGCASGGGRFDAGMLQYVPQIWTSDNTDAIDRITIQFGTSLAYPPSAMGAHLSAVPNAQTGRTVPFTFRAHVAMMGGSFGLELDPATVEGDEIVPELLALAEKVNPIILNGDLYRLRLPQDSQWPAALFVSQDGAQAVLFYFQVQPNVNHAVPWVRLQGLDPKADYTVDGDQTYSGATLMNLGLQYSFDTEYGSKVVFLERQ

[3] = Inhibitory concentration against alpha-galactosidase of coffee bean; design: species or system Coffea arabica
[4] = target: Sucrase-isomaltase, intestinal (Rattus norvegicus) (UniProt P23739); settings: 1000 uM
Sucrase-isomaltase, intestinal (Rattus norvegicus), sequence (P23739 1-1013 limits assumed): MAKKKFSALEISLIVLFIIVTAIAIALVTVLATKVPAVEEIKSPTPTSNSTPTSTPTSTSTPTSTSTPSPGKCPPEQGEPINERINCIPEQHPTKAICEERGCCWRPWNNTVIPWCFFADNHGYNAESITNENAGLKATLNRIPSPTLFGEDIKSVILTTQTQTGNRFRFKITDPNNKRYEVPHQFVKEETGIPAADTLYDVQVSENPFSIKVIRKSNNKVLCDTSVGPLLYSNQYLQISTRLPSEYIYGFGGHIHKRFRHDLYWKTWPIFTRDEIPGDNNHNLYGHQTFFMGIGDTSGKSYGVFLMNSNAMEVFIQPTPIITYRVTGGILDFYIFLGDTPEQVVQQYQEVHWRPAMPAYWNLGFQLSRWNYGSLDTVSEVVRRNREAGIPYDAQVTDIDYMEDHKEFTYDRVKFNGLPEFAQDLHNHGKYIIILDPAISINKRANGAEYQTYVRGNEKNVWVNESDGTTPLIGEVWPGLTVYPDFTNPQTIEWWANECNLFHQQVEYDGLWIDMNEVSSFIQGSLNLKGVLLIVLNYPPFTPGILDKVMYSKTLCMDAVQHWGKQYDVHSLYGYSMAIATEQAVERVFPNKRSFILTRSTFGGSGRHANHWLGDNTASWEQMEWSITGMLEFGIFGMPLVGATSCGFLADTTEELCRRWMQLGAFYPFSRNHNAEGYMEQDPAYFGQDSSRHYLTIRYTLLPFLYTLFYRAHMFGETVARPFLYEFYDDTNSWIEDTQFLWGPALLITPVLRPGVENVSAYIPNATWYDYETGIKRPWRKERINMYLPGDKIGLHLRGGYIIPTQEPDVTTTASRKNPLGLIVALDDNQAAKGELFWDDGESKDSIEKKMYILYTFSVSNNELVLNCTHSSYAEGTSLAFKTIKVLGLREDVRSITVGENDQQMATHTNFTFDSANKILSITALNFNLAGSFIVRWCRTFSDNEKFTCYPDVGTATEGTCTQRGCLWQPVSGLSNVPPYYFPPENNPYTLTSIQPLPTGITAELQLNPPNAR
Sucrase-isomaltase, intestinal (Rattus norvegicus), sequence (P23739 1014-1841 limits assumed): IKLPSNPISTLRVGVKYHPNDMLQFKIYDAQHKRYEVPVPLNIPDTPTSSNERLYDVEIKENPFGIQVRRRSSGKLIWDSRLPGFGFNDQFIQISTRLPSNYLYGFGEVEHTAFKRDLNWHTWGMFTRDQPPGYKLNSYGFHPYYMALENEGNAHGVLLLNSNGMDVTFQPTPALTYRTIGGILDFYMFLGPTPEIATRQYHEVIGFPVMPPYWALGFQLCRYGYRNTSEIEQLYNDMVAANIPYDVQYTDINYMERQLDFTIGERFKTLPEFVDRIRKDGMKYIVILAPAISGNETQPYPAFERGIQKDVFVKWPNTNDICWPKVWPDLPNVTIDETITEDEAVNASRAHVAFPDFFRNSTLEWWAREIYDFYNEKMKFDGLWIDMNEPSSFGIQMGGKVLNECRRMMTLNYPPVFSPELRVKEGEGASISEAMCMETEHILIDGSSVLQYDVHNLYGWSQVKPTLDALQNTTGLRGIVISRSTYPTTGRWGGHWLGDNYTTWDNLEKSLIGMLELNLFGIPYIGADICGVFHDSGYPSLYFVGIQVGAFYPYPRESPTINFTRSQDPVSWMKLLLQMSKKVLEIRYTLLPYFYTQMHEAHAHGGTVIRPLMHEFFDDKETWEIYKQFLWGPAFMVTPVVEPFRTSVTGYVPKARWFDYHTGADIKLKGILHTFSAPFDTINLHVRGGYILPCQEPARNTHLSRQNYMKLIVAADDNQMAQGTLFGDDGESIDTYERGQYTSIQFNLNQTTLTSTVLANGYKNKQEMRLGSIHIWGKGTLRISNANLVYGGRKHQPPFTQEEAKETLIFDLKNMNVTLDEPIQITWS

[5] = target: T3, Beta-mannosidase (Rattus norvegicus) (UniProt Q4FZV0); test: Percent inhibition of beta-mannosidase of rat epididymis at 1000 uM
T3 sequence (whole entry): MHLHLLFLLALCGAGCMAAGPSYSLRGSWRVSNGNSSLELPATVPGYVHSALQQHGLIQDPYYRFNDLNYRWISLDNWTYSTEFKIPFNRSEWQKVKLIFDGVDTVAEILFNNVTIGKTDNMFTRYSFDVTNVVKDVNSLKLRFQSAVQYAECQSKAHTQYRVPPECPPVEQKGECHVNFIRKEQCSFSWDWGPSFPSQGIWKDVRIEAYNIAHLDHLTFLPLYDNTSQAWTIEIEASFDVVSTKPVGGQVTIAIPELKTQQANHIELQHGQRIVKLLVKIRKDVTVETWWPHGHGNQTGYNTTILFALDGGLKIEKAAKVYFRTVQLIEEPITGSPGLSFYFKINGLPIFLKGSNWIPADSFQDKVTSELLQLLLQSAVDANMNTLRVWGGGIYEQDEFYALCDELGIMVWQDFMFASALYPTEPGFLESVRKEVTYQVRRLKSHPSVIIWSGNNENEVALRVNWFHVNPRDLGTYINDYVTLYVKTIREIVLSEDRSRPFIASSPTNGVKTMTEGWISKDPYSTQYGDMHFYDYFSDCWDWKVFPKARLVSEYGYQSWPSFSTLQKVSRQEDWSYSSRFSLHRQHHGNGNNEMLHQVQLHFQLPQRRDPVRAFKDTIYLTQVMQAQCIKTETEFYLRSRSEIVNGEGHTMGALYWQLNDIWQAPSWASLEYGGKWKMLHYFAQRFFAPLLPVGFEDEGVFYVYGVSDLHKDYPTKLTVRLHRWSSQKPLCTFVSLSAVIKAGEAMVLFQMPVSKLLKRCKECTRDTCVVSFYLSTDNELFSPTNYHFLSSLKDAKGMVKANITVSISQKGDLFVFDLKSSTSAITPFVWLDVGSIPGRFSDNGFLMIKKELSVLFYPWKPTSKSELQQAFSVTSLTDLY

[6] = target: T4, Tissue alpha-L-fucosidase (Homo sapiens) (UniProt P04066); settings: 1000 uM
T4 sequence (whole entry): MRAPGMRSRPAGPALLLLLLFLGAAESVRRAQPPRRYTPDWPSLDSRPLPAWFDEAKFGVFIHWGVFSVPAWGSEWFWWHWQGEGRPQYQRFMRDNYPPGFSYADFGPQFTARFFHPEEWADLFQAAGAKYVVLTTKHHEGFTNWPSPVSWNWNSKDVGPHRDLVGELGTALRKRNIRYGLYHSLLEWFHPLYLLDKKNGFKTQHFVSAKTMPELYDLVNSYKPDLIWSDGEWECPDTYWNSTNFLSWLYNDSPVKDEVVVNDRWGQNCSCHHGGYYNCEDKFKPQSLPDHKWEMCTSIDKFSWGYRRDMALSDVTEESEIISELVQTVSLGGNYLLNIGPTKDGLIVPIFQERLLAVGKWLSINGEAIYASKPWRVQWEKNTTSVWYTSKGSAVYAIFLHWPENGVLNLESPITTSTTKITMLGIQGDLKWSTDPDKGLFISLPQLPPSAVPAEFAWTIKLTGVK

Structure (SMILES)	inhibition [1] [%]	inhibition [2] [%]	IC50 [3] [µM]	inhibition [4] [%]	inhibition [5] [%]	inhibition [6] [%]
OC[C@H]1NC[C@H](O)[C@H](O)[C@@H]1O	< 50	< 50	260	< 50	< 50	–
OC[C@H]1NC[C@H](O)[C@H](O)[C@H]1O	< 50	< 50	160	< 50	< 50	< 50
OC[C@@H]1NC[C@H](O)[C@@H](O)[C@@H]1O	< 50	< 50	–	< 50	< 50	< 50
OC[C@H]1NC[C@@H](O)[C@@H](O)[C@@H]1O [DEOXYMANNOJIRIMYCIN]	< 50	< 50	–	–	< 50	–
OC[C@@H]1NC[C@H](O)[C@H](O)[C@H]1O	< 50	< 50	–	< 50	< 50	< 50
OC[C@@H]1NC[C@@H](O)[C@@H](O)[C@H]1O	< 50	< 50	290	< 50	< 50	< 50
OC[C@@H]1NC[C@@H](O)[C@H](O)[C@H]1O	< 50	< 50	–	–	< 50	< 50
OC[C@@H]1NC[C@@H](O)[C@H](O)[C@@H]1O	< 50	< 50	13	< 50	< 50	–
OC[C@H]1NC[C@H](O)[C@@H](O)[C@@H]1O [DUVOGLUSTAT]	< 50	< 50	880	–	–	< 50
OC[C@H]1NC[C@@H](O)[C@H](O)[C@H]1O	< 50	< 50	67	< 50	< 50	< 50
OC[C@@H]1NC[C@@H](O)[C@@H](O)[C@@H]1O	< 50	< 50	–	< 50	< 50	–
OC[C@H]1NC[C@H](O)[C@@H](O)[C@H]1O	< 50	–	0.003	< 50	< 50	< 50
